Data taken from PubChem BioAssay (NCI).
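1) Cells in 96-well plates. 2) Compound, 48 h, 5 concentrations. 3) Linear interpolation between surrounding doses. 4) Unreached endpoint = highest concentration. TGI marks complete inhibition of growth.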 Where a SMILES comes first, the peptide text is derived from it. [ ]: non-standard residue; d: D form. The star is where a group is joined. ξ: configuration not given here. NMeY = CN[C@@H](Cc1ccc(O)cc1)C(=O)O; Cbz = O=C(OCc1ccccc1)*; ξA = CC(N)C(=O)O

How the values were obtained:
Assay in all cases: inhibition of tumour cell growth, NCI panel, 48 h
HS 578T breast = test system: HS 578T breast
DU-145 prostate = test system: DU-145 prostate
MDA-N = test system: MDA-N
HT29 colon = test system: HT29 colon
NCI-H23 lung = test system: NCI-H23 lung
MDA-MB-231 breast = test system: MDA-MB-231 breast
MOLT-4 leukemia = test system: MOLT-4 leukemia
UACC-257 melanoma = test system: UACC-257 melanoma
UACC-62 melanoma = test system: UACC-62 melanoma
ACHN renal = test system: ACHN renal
IGROV1 ovarian = test system: IGROV1 ovarian
SF-295 CNS = test system: SF-295 CNS

SMILES	TGI (HS 578T breast)	TGI (DU-145 prostate)	TGI (MDA-N)	TGI (HT29 colon)	TGI (NCI-H23 lung)	TGI (MDA-MB-231 breast)	TGI (MOLT-4 leukemia)	TGI (UACC-257 melanoma)	TGI (UACC-62 melanoma)	TGI (ACHN renal)	TGI (IGROV1 ovarian)	TGI (SF-295 CNS)
O=c1[nH][nH]c(=O)n1Cc1ccccc1	> 100 µM	> 100 µM	> 100 µM	> 100 µM	> 100 µM	> 100 µM	> 100 µM	> 100 µM	> 100 µM			
COC(=O)c1cc(/C=C/C(=O)Cc2ccccc2)cn1S(=O)(=O)c1ccccc1	> 100 µM	> 100 µM	> 100 µM	> 100 µM	> 100 µM	> 100 µM	> 100 µM	> 100 µM	> 100 µM	> 100 µM	> 100 µM	> 100 µM
C1=NN2C(c3ccccc3)=NOC2C2C(c3ccccc3)=NOC12 (configuration not stated)	> 100 µM	> 100 µM	> 100 µM		> 100 µM	> 100 µM		> 100 µM	> 100 µM	> 100 µM	> 100 µM	> 100 µM
CC(C)N(C(C)C)S(=O)(=O)CC12CCC(C/C1=N\O)C2 (configuration not stated)	> 100 µM	> 100 µM	> 100 µM	> 100 µM	> 100 µM	> 100 µM	> 100 µM	> 100 µM	> 100 µM	> 100 µM	> 100 µM	> 100 µM
CCOC(=O)c1c2ccccc2n2c(=O)n(-c3ccc(OC)cc3)nnc12	55.9 µM	> 100 µM	> 100 µM		> 81.5 µM	> 100 µM		> 100 µM	99.6 µM	> 100 µM	> 100 µM	> 62.5 µM
COc1ccc(C[C@@H](C(=O)N[C@@H](C)C(N)=O)N(C)C(=O)[C@@H]2CCCN2C(=O)[C@H](CC(C)C)NC(=O)C(C)NC(=O)OCc2ccccc2)cc1 (some centres not stated) (Cbz-[ξA]LP[NMeY](Me)A-NH2)	> 100 µM	> 100 µM	> 100 µM	> 100 µM	> 100 µM	> 100 µM	> 100 µM		> 100 µM	> 100 µM	> 100 µM	> 100 µM
O=c1ccn(C/C=C/c2ccccc2)c(=S)n1C/C=C/c1ccccc1	> 100 µM	> 100 µM	> 100 µM	> 100 µM	> 100 µM	> 100 µM	92.6 µM	> 100 µM	> 100 µM	> 100 µM	> 100 µM	> 100 µM
CNC(=O)O/N=C1\N(C)CN(c2ccccc2)C12CCN(CCCC(=O)c1ccc(F)cc1)CC2	> 100 µM	> 100 µM	> 100 µM	> 100 µM	> 100 µM	> 100 µM	> 100 µM	35.4 µM	> 100 µM	> 100 µM	> 100 µM	> 100 µM
O=C(Nc1ccccc1)OCCN=c1c2ccccc2ccc2ccccc12	51.3 µM	> 100 µM	39 µM	38.8 µM	> 100 µM	> 100 µM	42.6 µM	42.2 µM	49.1 µM	61.8 µM	> 100 µM	39 µM
C1CSCCSCCSCCSCCS1	> 100 µM	> 100 µM	> 100 µM	> 100 µM	> 100 µM	> 100 µM	> 100 µM	> 100 µM	> 100 µM	> 100 µM	> 100 µM	> 100 µM
CSC12c3cc(C)n(-c4ccc(I)cc4)c3CC(C)(C)CN1C(=O)C2Oc1ccccc1 (configuration not stated)	> 100 µM	> 100 µM	> 100 µM	> 100 µM	> 100 µM	> 100 µM	> 100 µM	> 100 µM	> 100 µM	> 100 µM	> 100 µM	> 100 µM
COc1ccc(/C=C2/SC(=Nc3ccccc3)N(NC(=O)Cc3ccccc3)C2=O)cc1	> 100 µM	> 100 µM	> 100 µM	> 100 µM	> 100 µM	> 100 µM	> 100 µM	> 100 µM	> 100 µM	> 100 µM	> 100 µM	> 100 µM
N#Cc1c(-c2ccccc2)cn(C(=O)c2ccccc2)c1N	> 100 µM	> 100 µM	> 100 µM	> 100 µM	> 100 µM	> 100 µM	> 100 µM		> 100 µM	> 100 µM	> 100 µM	> 100 µM
COc1ccccc1N1CCN(S(=O)(=O)c2ccc(Cl)cc2)C1=N	> 100 µM	> 100 µM	> 100 µM		> 100 µM	> 100 µM	> 100 µM	> 100 µM	> 100 µM	> 100 µM		> 100 µM
COc1ccccc1/C=C1\CCC(Cc2ccccc2)(CN(C)C)C1=O (configuration not stated)	> 100 µM	> 100 µM	3.12 µM	5.55 µM	> 100 µM	46.7 µM	38.9 µM	> 100 µM	> 26.1 µM	> 100 µM	> 41.2 µM	> 63.1 µM
c1ccc2c(c1)CCN1CCc3ccccc3C1C2 (configuration not stated)	> 100 µM	> 100 µM	> 100 µM	> 100 µM	> 100 µM	> 100 µM	> 100 µM	> 100 µM	> 100 µM	> 100 µM	> 100 µM	> 100 µM
COC(C)=NCCC1=CCCCC1	> 100 µM	> 100 µM	> 100 µM	> 100 µM	> 100 µM	> 100 µM	> 100 µM	> 100 µM	> 100 µM	> 100 µM	> 100 µM	> 100 µM
O=S(=O)(O)c1c(Cl)c(Cl)c(O)c2ncccc12	54.4 µM	61.4 µM	43.6 µM	24 µM	29.6 µM	> 93.1 µM	20.1 µM	97.6 µM	29.7 µM	26.2 µM	16 µM	33.2 µM
CCC1=CC(OCc2ccccc2)C(CCN(Cc2ccccc2)C(=O)OCc2ccccc2)C1 (configuration not stated)	32.6 µM	30.2 µM	54.1 µM	37.6 µM	33.4 µM	62.6 µM	46.5 µM	30.3 µM	24.8 µM	30.9 µM	29.8 µM	35.3 µM
